Our source for the GI50 and TGI values is PubChem BioAssay (NCI).

Molecules are shown by their SMILES.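 Protocol summary: plate cells (96-well), add compound at 5 concentrations, incubate 48 h, interpolate endpoints linearly. GI50 = concentration required for 50% inhibition of growth. At the TGI there is no net growth.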 Where only a bound is given, the exact number is not on record here.

Some test systems named below: HOP-92 NSCLC; T-47D breast; A549 NSCLC; NCI/ADR-RES ovarian; LOX IMVI melanoma; MDA-MB-435; NCI-H460 lung; SR leukemia; TK-10 renal; SF-539 CNS.
Holding throughout (assay): inhibition of tumour cell growth, NCI panel, 48 h

As for `O=c1c2ccccc2sc2c(NCCCNCCO)nc3ccccc3c12`, the GI50 with HOP-92 NSCLC was 0.922 µM; in the assay on T-47D breast, 1.99 µM; in the assay on A549 NSCLC, 1.53 µM; with NCI/ADR-RES ovarian it was 1.86 µM; with LOX IMVI melanoma, 1.28 µM; with MDA-MB-435, 1.77 µM. In addition, the GI50 was 0.605 µM in the assay with NCI-H460 lung, 1.6 µM in the assay on SR leukemia, 1.91 µM with TK-10 renal and 1.65 µM in the assay with SF-539 CNS. Also, the TGI in the assay on HOP-92 NSCLC came to 5.67 µM; with T-47D breast it was 4.38 µM; in the assay on A549 NSCLC it was 3.41 µM; in the assay on NCI/ADR-RES ovarian, 4.56 µM; in the assay on LOX IMVI melanoma, 2.82 µM; with MDA-MB-435 it was 3.25 µM. Besides, the TGI was 2.01 µM in the assay on NCI-H460 lung, 4.55 µM in the assay on SR leukemia, 3.38 µM in the assay with TK-10 renal and 3.23 µM in the assay on SF-539 CNS.

With `O=C1NC(=C(Cl)Cl)/C(=N/S(=O)(=O)N2CCCCC2)N1`, the GI50 with HOP-92 NSCLC is 1.75 µM; in the assay with T-47D breast, 5.94 µM; in the assay on A549 NSCLC, 6.85 µM; with NCI/ADR-RES ovarian, 3.87 µM; in the assay with LOX IMVI melanoma, 1.86 µM; in the assay on MDA-MB-435 it was 1.98 µM. Also, the GI50 in the assay on NCI-H460 lung is 3.27 µM; in the assay with SR leukemia, 1.5 µM; in the assay with TK-10 renal it was 4.82 µM; with SF-539 CNS, 2.2 µM. For the same molecule, the TGI is 3.33 µM with HOP-92 NSCLC; 64.5 µM in the assay with T-47D breast; 22.2 µM with A549 NSCLC; 29.2 µM in the assay with NCI/ADR-RES ovarian; 3.58 µM with LOX IMVI melanoma; 4.21 µM in the assay with MDA-MB-435. The TGI in the assay with NCI-H460 lung is 11.2 µM; in the assay with SR leukemia, 3.89 µM; with TK-10 renal it was > 100 µM; with SF-539 CNS, 5.55 µM.

Take `OCC1C(OCc2ccccc2)C(OCc2ccccc2)C(OCc2ccccc2)CN1Cc1ccccc1` (stereo not given): the TGI was 44.8 µM with HOP-92 NSCLC; > 100 µM in the assay with T-47D breast; > 100 µM with A549 NSCLC; > 100 µM in the assay on NCI/ADR-RES ovarian; > 100 µM in the assay on LOX IMVI melanoma; > 100 µM in the assay on MDA-MB-435. Moreover, the TGI in the assay with NCI-H460 lung is 48.1 µM; with SR leukemia, > 100 µM; in the assay on TK-10 renal it was > 100 µM; with SF-539 CNS it was > 100 µM.

Regarding `Cc1c(-c2cnccn2)ssc1=S`, the TGI with HOP-92 NSCLC was 89.7 µM; in the assay on T-47D breast, > 100 µM; in the assay with A549 NSCLC, > 100 µM; in the assay with NCI/ADR-RES ovarian, > 100 µM; in the assay with LOX IMVI melanoma it was 98.8 µM; in the assay on MDA-MB-435, > 100 µM. The TGI with NCI-H460 lung was > 100 µM; with SR leukemia it was > 100 µM; in the assay on TK-10 renal it was 98.7 µM; in the assay on SF-539 CNS, > 100 µM.

Regarding `Cc1cc2nc(NCCN)n(Cc3ccc(F)c(Cl)c3)c2cc1C`, the GI50 is 2.35 µM with HOP-92 NSCLC; 6.16 µM with T-47D breast; 17.8 µM with A549 NSCLC; 16.3 µM in the assay with NCI/ADR-RES ovarian; 3.73 µM in the assay on LOX IMVI melanoma; 3.68 µM in the assay with MDA-MB-435. Besides, the GI50 in the assay with NCI-H460 lung was 3.2 µM; in the assay with SR leukemia, 2.03 µM; in the assay on TK-10 renal, 16.9 µM; in the assay with SF-539 CNS it was 11.7 µM. Also, the TGI in the assay with HOP-92 NSCLC was found to be 14.3 µM; with T-47D breast, 21.7 µM; in the assay with A549 NSCLC it was 32.2 µM; in the assay on NCI/ADR-RES ovarian, 32.1 µM; in the assay with LOX IMVI melanoma it was 14.5 µM; with MDA-MB-435 it was 14 µM. Also, the TGI with NCI-H460 lung was determined as 10.4 µM; in the assay on SR leukemia, 6.04 µM; in the assay with TK-10 renal, 31.2 µM; in the assay with SF-539 CNS it was 26 µM.

For `O=C(O)c1cc(-c2ccc3cc4c(cc3c2)OCO4)nc2ccccc12`, the TGI is 87.9 µM in the assay with HOP-92 NSCLC; > 100 µM in the assay with T-47D breast; > 100 µM in the assay on A549 NSCLC; > 100 µM in the assay with NCI/ADR-RES ovarian; > 100 µM in the assay with LOX IMVI melanoma; > 100 µM in the assay on MDA-MB-435. For the same molecule, the TGI was 42.7 µM in the assay with NCI-H460 lung, 88.9 µM in the assay with SR leukemia, > 100 µM with TK-10 renal and > 100 µM in the assay with SF-539 CNS.

Consider `CN[C@H]1CN(c2ccc3c(=O)c(C(=O)O)cn(-c4nccs4)c3n2)C[C@@H]1OC`, for which the GI50 was 0.176 µM with HOP-92 NSCLC; 1.23 µM in the assay on T-47D breast; 0.511 µM with A549 NSCLC; 1.3 µM in the assay on NCI/ADR-RES ovarian; 0.266 µM in the assay with LOX IMVI melanoma; 1.29 µM with MDA-MB-435. Also, the GI50 is 0.133 µM in the assay on NCI-H460 lung, 0.0508 µM with SR leukemia, 1.1 µM with TK-10 renal and 0.592 µM in the assay on SF-539 CNS. Further, the TGI with HOP-92 NSCLC was 0.938 µM; with T-47D breast, 7.76 µM; in the assay on A549 NSCLC, 2.76 µM; in the assay on NCI/ADR-RES ovarian, 7.56 µM; in the assay with LOX IMVI melanoma, 3.4 µM; in the assay with MDA-MB-435 it was 3.51 µM. Moreover, the TGI was 1.53 µM in the assay on NCI-H460 lung, 0.777 µM in the assay on SR leukemia, 4.13 µM with TK-10 renal and 4.14 µM with SF-539 CNS.

In the case of `O=C(O)CCNCC(=O)O`, the TGI with HOP-92 NSCLC, with T-47D breast, with A549 NSCLC, in the assay with NCI/ADR-RES ovarian, in the assay with LOX IMVI melanoma and with MDA-MB-435 was > 100 µM throughout. The TGI in the assay with NCI-H460 lung, with SR leukemia, in the assay with TK-10 renal and in the assay on SF-539 CNS was > 100 µM in each case.

Turning to `Oc1c(Cl)cc(Cl)c(Cl)c1CNCCNCc1c(O)c(Cl)cc(Cl)c1Cl`, the GI50 with HOP-92 NSCLC was 1.66 µM; in the assay with T-47D breast, 0.988 µM; in the assay with A549 NSCLC, 1.11 µM; in the assay on NCI/ADR-RES ovarian, 0.245 µM; with LOX IMVI melanoma it was 0.357 µM; with MDA-MB-435 it was 1.58 µM. Moreover, the GI50 in the assay on NCI-H460 lung was 0.44 µM; with SR leukemia, 0.622 µM; in the assay with TK-10 renal, 2.02 µM; in the assay on SF-539 CNS, 0.439 µM. The TGI was 10.3 µM in the assay with HOP-92 NSCLC; > 50 µM in the assay with T-47D breast; 8.21 µM with A549 NSCLC; 6.84 µM in the assay with NCI/ADR-RES ovarian; 5.19 µM in the assay with LOX IMVI melanoma; 9.87 µM in the assay on MDA-MB-435. Moreover, the TGI was 7.52 µM in the assay on NCI-H460 lung, > 50 µM with SR leukemia, 11.2 µM in the assay on TK-10 renal and 5.32 µM in the assay with SF-539 CNS.

`Cc1cnc2n1S(=O)(=O)c1cc(C(=O)Nc3cccc4nsnc34)c(Cl)cc1S2`: the GI50 in the assay with HOP-92 NSCLC is 18.3 µM; in the assay with T-47D breast, 11.5 µM; in the assay with A549 NSCLC it was 46.9 µM; with NCI/ADR-RES ovarian, 16.2 µM; with LOX IMVI melanoma it was 32.9 µM; with MDA-MB-435, 22.4 µM. Further, the GI50 was 18 µM in the assay with NCI-H460 lung, 29.1 µM in the assay on SR leukemia, 19.8 µM in the assay on TK-10 renal and 23.4 µM in the assay with SF-539 CNS. In addition, the TGI in the assay with HOP-92 NSCLC is 50.4 µM; in the assay with T-47D breast it was 31.9 µM; in the assay on A549 NSCLC, > 100 µM; in the assay on NCI/ADR-RES ovarian, 34.1 µM; with LOX IMVI melanoma it was > 100 µM; with MDA-MB-435 it was 56.5 µM. For the same molecule, the TGI in the assay on NCI-H460 lung is 37.7 µM; with SR leukemia it was > 100 µM; with TK-10 renal, 40 µM; in the assay on SF-539 CNS, 50.2 µM.

For `COc1ccc(/C=C\c2cc(OC)c(OC)c(OC)c2)cc1OCC(=O)Nc1nc2ccc(F)cc2s1`, the GI50 in the assay on HOP-92 NSCLC was 5.73 µM; in the assay on T-47D breast, 3.39 µM; in the assay on A549 NSCLC it was 5.99 µM; with NCI/ADR-RES ovarian it was 2.55 µM; with LOX IMVI melanoma it was 3.23 µM; with MDA-MB-435, 0.335 µM. The GI50 was 4.31 µM with NCI-H460 lung, 2.19 µM in the assay with SR leukemia, 9.89 µM with TK-10 renal and 4.51 µM in the assay on SF-539 CNS. Also, the TGI with HOP-92 NSCLC was > 100 µM; in the assay on T-47D breast, 68.5 µM; in the assay with A549 NSCLC, > 100 µM; in the assay on NCI/ADR-RES ovarian, > 100 µM; with LOX IMVI melanoma, > 100 µM; with MDA-MB-435 it was > 100 µM. For the same molecule, the TGI in the assay with NCI-H460 lung, in the assay with SR leukemia, in the assay with TK-10 renal and in the assay with SF-539 CNS was > 100 µM throughout.

For the molecule `CCc1ccc(Oc2c(-c3ccc(OCc4ccc(Cl)cc4)cc3O)n[nH]c2C(F)(F)F)cc1`, the GI50 with HOP-92 NSCLC is 2.03 µM; in the assay with T-47D breast, 1.71 µM; in the assay with A549 NSCLC it was 2.02 µM; in the assay with NCI/ADR-RES ovarian it was 2.11 µM; in the assay with LOX IMVI melanoma, 1.63 µM; with MDA-MB-435, 1.8 µM. The GI50 is 2.05 µM with NCI-H460 lung, 2.78 µM in the assay on SR leukemia, 2 µM in the assay on TK-10 renal and 1.96 µM in the assay on SF-539 CNS. For the same molecule, the TGI with HOP-92 NSCLC was 4.77 µM; with T-47D breast, 4.25 µM; with A549 NSCLC, 4.22 µM; in the assay with NCI/ADR-RES ovarian it was 4.85 µM; with LOX IMVI melanoma, 3.01 µM; in the assay with MDA-MB-435, 3.49 µM. Moreover, the TGI came to 4.1 µM in the assay on NCI-H460 lung, 6.92 µM with SR leukemia, 4.75 µM with TK-10 renal and 4.41 µM in the assay with SF-539 CNS.
